{"source": "patent US6995269B2", "about": "“Guanidinobenzamides” (Chiron Corporation, priority 2000, dated 2006)", "type_in_all_cases": "in vivo", "key": {"ob/ob mice [1]": {"tested_on": "ob/ob mice", "experiment": "Food intake in ob/ob mice, 4 week IP treatment", "settings": "3 mg/kg IP twice daily for 4 weeks, vs vehicle", "protocol": "(§1) In vivo studies were conducted to observe the effect of MCR-4 agonists on energy intake, body weight, hyperinsulinemia, and glucose levels. All studies were conducted with male-9–10 week old ob/ob mice which display early onset of obesity, insulin resistance and diabetes due to leptin deficiency. Mice were acclimated in the facility for 1 week before studies and are caged individually. Vehicle-treated (control) and drug treated mice studies were always run in parallel. In multi-day studies, mice (8–15 per group) were monitored for baseline body weight, fasting levels of glucose, insulin, blood lipids and energy expenditure and then injected twice daily (9 a.m. and 5 p.m.) with 3 mg/kg of the MC4-R agonist 4-[(N-cyclohexyl-3,5-dimethyl-piperazine-1-carboximidoyl)-amino]-N-[2-(2,4-dichlorophenyl)-ethyl]-benzamide for 4 weeks. Body weight as well as food and water intake were monitored daily. […] Energy expenditure (resting metabolic rate, i.e., O2 consumption and CO2 production) were monitored in air tight chambers at the end of the study on fed animals. O2 consumption and CO2 production were measured using Oxymax systems (Columbus Instruments). […] Blood glucose and oral glucose tolerance were measured using a glucose monitor (Onetouch sold by Lifescan). Free fatty acids were measured using an non-esterified free fatty acids enzymatic assay (Waco Chemicals). […]"}, "ob/ob mice [2]": {"tested_on": "ob/ob mice", "experiment": "Body weight in ob/ob mice, 4 week IP treatment", "settings": "3 mg/kg IP twice daily for 4 weeks", "protocol": "as §1"}, "ob/ob mice [3]": {"tested_on": "ob/ob mice", "experiment": "Fasting blood glucose in ob/ob mice, 4 week IP treatment", "settings": "ob/ob mice fasted overnight, 3 mg/kg IP twice daily for 4 weeks, vs vehicle", "protocol": "as §1"}, "ob/ob mice [4]": {"tested_on": "ob/ob mice", "experiment": "Oral glucose tolerance test (OGTT) in ob/ob mice at end of study", "settings": "overnight fasted ob/ob mice at end of 4 week study, oral glucose load, vs vehicle", "protocol": "as §1"}, "ob/ob mice [5]": {"tested_on": "ob/ob mice", "experiment": "Free fatty acid levels in ob/ob mice", "settings": "ob/ob mice fasted overnight, drug treated IP vs vehicle", "protocol": "as §1"}, "ob/ob mice [6]": {"tested_on": "ob/ob mice", "experiment": "Serum insulin levels after single IP dosing in ob/ob mice", "settings": "overnight fasted ob/ob mice", "protocol": "as §1"}}}
{"smiles": "CC1CN(C(=NC2CCCCC2)Nc2ccc(C(=O)NCCc3ccc(Cl)cc3Cl)cc2)CC(C)N1", "note": "(stereo not shown) [4-[(N-cyclohexyl-3,5-dimethyl-piperazine-1-carboximidoyl)-amino]-N-[2-(2,4-dichlorophenyl)-ethyl]-benzamide]", "values": [{"measurement": "food intake", "setting": "ob/ob mice [1]", "value": "significant reduction in food intake"}, {"measurement": "body weight less than the vehicle treated mice at the end of the study", "setting": "ob/ob mice [2]", "value": 19, "unit": "%"}, {"measurement": "decrease in fasting blood glucose levels", "setting": "ob/ob mice [3]", "value": 47, "unit": "%"}, {"measurement": "decrease of the area under the curve of glucose in OGTT", "setting": "ob/ob mice [4]", "value": 45, "unit": "%"}, {"measurement": "decrease in free fatty acid (FFA) levels", "setting": "ob/ob mice [5]", "value": 50, "unit": "%"}, {"measurement": "decrease of serum insulin levels relative to vehicle", "setting": "ob/ob mice [6]; one hour after single IP dosing of 1 mg/kg", "value": 27, "unit": "%"}, {"measurement": "decrease of serum insulin levels relative to vehicle", "setting": "ob/ob mice [6]; one hour after single IP dosing of 3 mg/kg", "value": 55, "unit": "%"}]}
